Laboratory results taken from patent US8383642B2, “Spiropiperidine compounds” (Eli Lilly and Company, priority 2009, dated 2013).

Columns and labels:
PPARγ = target: T1, PPARγ (Homo sapiens, UniProt P37231); test: PPARγ binding assay (SPA); set-up: made in house; host or cells: HEK293 (cell lysates); details: concentrations up to 10 μM
T1 sequence (P37231 1-505): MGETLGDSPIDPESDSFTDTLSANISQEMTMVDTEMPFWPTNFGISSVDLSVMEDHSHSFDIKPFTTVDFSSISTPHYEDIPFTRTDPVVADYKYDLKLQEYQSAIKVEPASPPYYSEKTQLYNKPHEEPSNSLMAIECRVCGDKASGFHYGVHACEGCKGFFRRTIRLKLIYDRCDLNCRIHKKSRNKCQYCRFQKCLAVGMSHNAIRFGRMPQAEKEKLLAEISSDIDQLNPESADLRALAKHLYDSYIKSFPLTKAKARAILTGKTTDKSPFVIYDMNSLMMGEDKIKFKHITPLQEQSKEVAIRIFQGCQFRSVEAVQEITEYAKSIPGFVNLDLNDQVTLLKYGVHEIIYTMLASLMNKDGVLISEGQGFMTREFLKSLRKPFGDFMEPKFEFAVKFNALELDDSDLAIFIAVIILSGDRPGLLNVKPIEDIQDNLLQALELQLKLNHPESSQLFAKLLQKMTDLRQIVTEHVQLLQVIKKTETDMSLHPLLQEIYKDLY
T1 sequence (P19793 1-462 partner): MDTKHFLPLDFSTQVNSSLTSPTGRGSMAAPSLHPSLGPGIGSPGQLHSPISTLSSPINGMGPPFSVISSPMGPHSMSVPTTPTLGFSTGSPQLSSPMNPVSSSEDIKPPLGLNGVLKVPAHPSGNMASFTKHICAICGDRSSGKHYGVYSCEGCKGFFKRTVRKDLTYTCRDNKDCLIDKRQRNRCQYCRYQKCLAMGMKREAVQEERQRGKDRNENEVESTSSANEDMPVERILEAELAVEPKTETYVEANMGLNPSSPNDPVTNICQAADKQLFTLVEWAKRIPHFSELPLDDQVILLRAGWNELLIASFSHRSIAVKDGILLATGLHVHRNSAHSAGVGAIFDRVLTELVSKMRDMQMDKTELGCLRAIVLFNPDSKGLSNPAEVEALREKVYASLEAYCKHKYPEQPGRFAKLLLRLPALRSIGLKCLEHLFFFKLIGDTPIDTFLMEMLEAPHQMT
Protocol: Because GPR40 is known to be activated by ligands to PPARγ exemplified compounds are examined in PPARα, PPARδ, and PPARγ binding and functional assays to determine the selectivity of exemplified compounds for GPR40. Compounds exemplified herein are tested essentially as described below for PPAR binding and generally have binding values greater than 1000 nM with 10 μM concentrations of test compound and are thus considered negative for PPAR activity.
Binding affinities of compounds for the PPAR α, δ, and γ receptors are assessed using Scintillation Proximity Assay (SPA) technology. Biotinylated oligonucleotide Direct Repeat 2 (DR2) is used for binding the receptors to Yttrium silicate streptavidin-coated SPA beads. […] Non-specific binding is determined in the presence of 10,000 nM of the unlabeled PPAR α/δ dual agonist reference compound for the alpha and delta receptor assays and the PPARγ agonist reference compound for the gamma receptor assay. The binding reaction (100 μl per well in a 96 well [Costar 3632] plate) is incubated for 10 h and counted disintegration per minutes (dpm) on a Wallac Microbeta. Receptor binding affinity (IC50) for the compounds is determined by fitting an 11 point concentration-response curve with a 4-parameter logistic equation. Ki, is determined from the IC50 using the Cheng-Prussoff equation and Kd determined by saturation binding. […]

pancreatic islets = test: GDIS assay, primary rodent pancreatic islets of Langerhans; type: cell-based; details: different concentrations; compared to 11.2 mM glucose alone; 90 minutes; SD rat islets
From the text: Because activation of GPR40 is known to result in insulin secretion which is dependent on high glucose concentrations, two separate assay systems (insulinoma cell line and primary rodent islets) are developed to further characterize compounds that are known to increase intracellular calcium in the GPR40 primary assay discussed above.
GDIS assays using primary rodent pancreatic islets of Langerhans are also used to characterize exemplified compounds. Pancreatic islets are isolated from male SD (Sprague Dawley) rats by collagenase digestion and Histopaque density gradient separation. The islets are cultured overnight in RPMI-1640 medium with GlutaMAXn (stabilized, dipeptide form of L-glutamine (Invitrogen catalog #61870-010)) to facilitate recovery from the isolation process. Insulin secretion is determined by a 90 minute incubation in EBSS (Earle's Balances Salt Solution) buffer in a 48-well plate. Briefly, islets are first preincubated in EBSS with 2.8 mM glucose for 30 min and are then transferred to a 48-well plate (four islets/well) containing 150 μl 2.8 mM glucose and incubated with 150 μl of EBSS with 2.8 or 11.2 mM glucose in the presence or absence of test compounds for 90 minutes. The buffer is removed from the wells at the end of the incubation and assayed for insulin levels using the Rat Insulin ELISA kit (Mercodia). […]

CC#C[C@@H](CC(=O)O)c1ccc(OCc2ccc(CN3CCC4(C=Cc5ccccc54)CC3)cc2)cc1 [Example 1, (3S)-3-(4-{[4-(1′H-Spiro[indene-1,4′-piperidin]-1′-ylmethyl)benzyl]oxy}phenyl)hex-4-ynoic acid]
binding detected (PPARγ): no binding is detected | increase in insulin (pancreatic islets): 2- to 4 fold
